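Interpolation was linear, between the two tested concentrations surrounding the appropriate level; five concentrations were tested over 48 hours in 96-well plates. TGI: concentration producing complete growth inhibition.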
Key:
Assay in all cases: NCI anticancer screen, dose series, 48 h
A498 renal = system: A498 renal
EKVX NSCLC = system: EKVX NSCLC
HCT-116 colon = system: HCT-116 colon
HT29 colon = system: HT29 colon
MALME-3M melanoma = system: MALME-3M melanoma
SK-MEL-28 melanoma = system: SK-MEL-28 melanoma
SN12C renal = system: SN12C renal
SR leukemia = system: SR leukemia
SW-620 colon = system: SW-620 colon
T-47D breast = system: T-47D breast

SMILES	TGI (A498 renal)	TGI (EKVX NSCLC)	TGI (HCT-116 colon)	TGI (HT29 colon)	TGI (MALME-3M melanoma)	TGI (SK-MEL-28 melanoma)	TGI (SN12C renal)	TGI (SR leukemia)	TGI (SW-620 colon)	TGI (T-47D breast)
COCn1c(C)c(C)c2c(=O)oc(C)nc21	> 100 µM	> 100 µM	> 100 µM	> 100 µM	> 100 µM	> 100 µM	> 100 µM	> 100 µM	> 100 µM	> 100 µM
O=c1c2c3c(sc2nc2n1N=C(c1ccc([N+](=O)[O-])cc1)CS2)CCCC3	> 100 µM	> 100 µM	> 100 µM	> 100 µM	> 100 µM	> 100 µM	> 100 µM	> 100 µM	> 100 µM	> 100 µM
N=C(N)SCc1ccc(N=C=S)cc1	26.9 µM	35.5 µM	27.2 µM	40.3 µM	27.4 µM	28.7 µM	28.5 µM	> 100 µM	29.1 µM	34.9 µM
C/C(=C1\C(=O)C(c2ccccc2)N(c2ccccc2)C1=O)c1ccc(Cl)cc1 (stereo not given)	33.1 µM	79.6 µM	36.3 µM	31.2 µM	37.4 µM	31.2 µM	86 µM	53.2 µM	72.3 µM	45.3 µM
